Assay results: publication doi:10.1101/2023.10.24.563163v2, “Targeting cancer with small molecule pan-KRAS degraders” (biorxiv, 2024)

Tests used:
[1] = target: T1, VHL:EloC:EloB (VCB) complex (Homo sapiens, UniProt P40337); test: biochemical; parameters: SPR binary and ternary complex binding affinity and kinetics; conditions: SPR, binary
T1 construct: VHL 54-213 (His6 tag removed by TEV), EloC 17-112, EloB 1-104 co-expressed in E. coli; heterotrimer; with Elongin-C; Elongin-B
Excerpt: (§1) With the objective of identifying molecules that potently degrade multiple KRAS mutants we next sought to employ structure-based design using the solved ternary co-crystal structure of compound 3 to improve ternary complex stability and intracellular VHL engagement. […] Analysis of the VCB:compound 3:KRAS^G12V co-crystal structure (Fig. 1H) highlighted an opportunity to enhance interactions within the ternary complex by improving π-stacking between the exit vector amide of the VHL ligand and Tyr112. We therefore switched the amide for an isoxazole, which has been previously reported to improve VCB affinity in this position in other contexts ([22]), yielding compound 4 (Fig. 2A). A ternary complex co-crystal structure of VCB:compound 4:KRAS^G12V (PDB 8QW7) confirmed a consistent overall binding mode to that observed for compound 3 (RMSD = 0.72 Å), with compound 4 able to engage in π-stacking interaction between the isoxazole and Tyr112 of VCB as designed (Fig. 2B). […] FP, SPR and cellular target engagement studies support a minor improvement in binary VHL engagement for compound 4, with moderate cooperativity retained (fig. S2A-C, table S1). […] We then investigated the impact of these structural changes on degradation kinetics in live HiBiT-tagged GP5d cells (fig. S3A-D). […] Aiming to measure ternary complex stability, we noted that the FP assay reached the limits of quantification due to ternary KD approaching that of the assay probe (fig. S8B).

KRAS^G12V = KRAS^G12V (Homo sapiens, UniProt P01116, G12V); test: cell-based; parameters: endogenous; KRAS degradation by capillary electrophoresis immunodetection; conditions: SW-620; read-out: Dmax 24 h SW620 [%]
Protocol: Protein Detection by Capillary Electrophoresis Cells (50 000) were seeded the day before treatment into 96-well clear-flat bottom plates and incubated overnight (37 °C, humidified tissue culture incubator, 5% CO2). Compounds were added from DMSO stock solution using a digital dispenser and cells are incubated at 37 °C as specified (24 hours for KRAS degradation, 6 hours for determination of pERK levels). At the end of the incubation, medium was removed, cells washed with ice cold PBS, PBS removed and 50 µL lysis buffer (Meso Scale Discovery #R60TX-2) supplemented with 1:100 protease inhibitor solution, 1:100 phosphatase inhibitor I, 1:100 phosphatase inhibitor II (Meso Scale Discovery #R70AA-1), 0.5 µL/mL Benzonase (Novagen #70664-3) and 10 mM dithiothreitol added to each well. Plates with lysis buffer were immediately transferred to -80 °C freezer for at least 2 hours and then thawed on ice. Lysates were transferred to a 96 well V-bottom plate and insoluble debris was pelleted by centrifugation for 20 min. at 4 000 rpm. 40 µL of the supernatant were transferred to a fresh Eppendorf PCR plate. Analysis of protein levels was conducted using the Wes System, ProteinSimple (https://www.bio-techne.com/) as specified by the manufacturer. Briefly, Wes Master Mix (12-230 kDa WES Separation Module, 8 × 25 capillary cartridges, ProteinSimple #SM-W004) and molecular weight markers were prepared as specified in the manufacturer’s recommendations. To detect primary antibodies, anti-rabbit (Protein Simple #DM-001) or anti-mouse (Protein Simple #DM-002) detection modules were used. 7.2 µL lysate + 1.8 µL master mix were combined and heated to 95 °C for 5 min. […] Next, we set out to test the ability of a single pan-KRAS degrading molecule, compound 4, to selectively suppress oncogenic signaling and proliferation in cancer cell lines driven by diverse KRAS mutants. To this end, we first confirmed degradation of KRAS by compound 4 in KRAS-dependent (GP2d, SW620 and NCI-H358 expressing KRAS^G12D, - G12V or -G12C, respectively) as well as in KRAS independent (A-375, HEK293) cell lines (Fig. 3A, fig. S4A). […] Both inhibition and degradation repressed the established markers of MAPK signaling pERK (fig. S4B-D) and DUSP6 (Fig. 3B, fig. S4E) in KRAS dependent cell lines. […] Neither degradation nor inhibition had appreciable antiproliferative effects in the KRAS independent cell lines A-375 and HEK293 (Fig. 3C, fig. S4F).

KRAS = target: T2, KRAS (Homo sapiens, UniProt P01116, C118S/G12V); test: biochemical; parameters: SPR binary and ternary complex binding affinity and kinetics; conditions: GDP-bound; read-out: SPR KRAS^G12V GDP KD
T2 construct: residues 1-169, C118S background; His6 tag removed, E. coli; biotinylated for SPR
Excerpt: as §1

KRAS^G12D GDP = target: T3, KRAS^G12D GDP (Homo sapiens, UniProt P01116, C118S/G12D); test: biochemical; parameters: SPR binary and ternary complex binding affinity and kinetics; conditions: GDP-bound; read-out: SPR KRAS^G12D GDP KD
T3 construct: residues 1-169, C118S background
Excerpt: as §1

GP2d = test: cells; parameters: DUSP6 modulation; conditions: GP2d, 6 h; read-out: IC50 DUSP6
Excerpt: (§2) Next, we set out to test the ability of a single pan-KRAS degrading molecule, compound 4, to selectively suppress oncogenic signaling and proliferation in cancer cell lines driven by diverse KRAS mutants. To this end, we first confirmed degradation of KRAS by compound 4 in KRAS-dependent (GP2d, SW620 and NCI-H358 expressing KRAS^G12D, - G12V or -G12C, respectively) as well as in KRAS independent (A-375, HEK293) cell lines (Fig. 3A, fig. S4A). […] Both inhibition and degradation repressed the established markers of MAPK signaling pERK (fig. S4B-D) and DUSP6 (Fig. 3B, fig. S4E) in KRAS dependent cell lines. […] Neither degradation nor inhibition had appreciable antiproliferative effects in the KRAS independent cell lines A-375 and HEK293 (Fig. 3C, fig. S4F).

NCI-H358 = test: cells; parameters: DUSP6 modulation; conditions: Homo sapiens, NCI-H358, 6 h; read-out: IC50 DUSP6
Excerpt: as §2

T3 sequence (P01116 whole entry G12D/C118S, the tested form may be a part): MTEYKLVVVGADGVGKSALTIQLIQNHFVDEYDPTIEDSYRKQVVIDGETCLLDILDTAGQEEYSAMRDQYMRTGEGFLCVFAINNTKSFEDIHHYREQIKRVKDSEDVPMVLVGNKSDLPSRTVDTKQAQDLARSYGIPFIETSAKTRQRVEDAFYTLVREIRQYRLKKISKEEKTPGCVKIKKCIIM
T1 sequence (Q15369 17-112): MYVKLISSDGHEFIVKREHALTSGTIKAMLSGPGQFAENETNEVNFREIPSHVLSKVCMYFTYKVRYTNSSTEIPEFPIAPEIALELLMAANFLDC
T1 sequence (Q15370 1-104, further chain): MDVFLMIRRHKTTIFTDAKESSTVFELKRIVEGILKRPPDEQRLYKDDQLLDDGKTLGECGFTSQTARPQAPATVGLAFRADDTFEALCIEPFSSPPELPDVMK
T1 sequence (P40337 54-213): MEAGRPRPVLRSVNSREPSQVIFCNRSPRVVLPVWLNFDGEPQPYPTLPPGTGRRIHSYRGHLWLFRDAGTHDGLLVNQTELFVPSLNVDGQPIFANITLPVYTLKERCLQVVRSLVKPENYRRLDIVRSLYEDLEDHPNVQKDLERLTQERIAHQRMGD
T2 sequence (P01116 1-169 G12V/C118S): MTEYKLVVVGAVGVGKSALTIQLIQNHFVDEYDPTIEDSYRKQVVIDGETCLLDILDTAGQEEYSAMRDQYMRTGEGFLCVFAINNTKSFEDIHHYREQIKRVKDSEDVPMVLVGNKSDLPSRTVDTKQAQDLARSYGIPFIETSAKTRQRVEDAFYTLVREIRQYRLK
Chain of KRAS^G12V (P01116 whole entry G12V): as the sequence (P01116 whole entry G12D/C118S, the tested form may be a part) above, with D12V, S118C counted along it

Kd [1] | Dmax (KRAS^G12V) | Kd (KRAS) | Kd (KRAS^G12D GDP) | kon ([1]; read-out: SPR VCB kon [1/(M s)]) | IC50 (GP2d) | IC50 (NCI-H358) | SMILES
11.1 ± 0.3 nM | 83% |  |  |  |  |  | Cc1ncsc1-c1ccc([C@H](CO)NC(=O)[C@@H]2C[C@@H](O)CN2C(=O)[C@H](C(C)C)n2cc(OCCCCN3CCCN(c4nccc(-c5noc([C@@]6(C)CCCc7sc(N)c(C#N)c76)n5)n4)[C@@H](C)C3)nn2)cc1 [compound 7, ACBI3]
 | 89% | 8 nM | 11 ± 1 nM |  | 3.3 nM | 11.4 nM | Cc1ncsc1-c1ccc(CNC(=O)[C@@H]2C[C@@H](O)CN2C(=O)[C@@H](c2cc(OCCCCN3CCCN(c4nccc(-c5noc([C@@]6(C)CCCc7sc(N)c(C#N)c76)n5)n4)[C@@H](C)C3)no2)C(C)C)cc1 [compound 4]
737 ± 388 nM | 100% | 136 ± 1 nM | 240 ± 31 nM |  |  |  | Cc1ncsc1-c1ccc(CNC(=O)[C@@H]2C[C@@H](O)CN2C(=O)[C@@H](NC(=O)COCCCN2CCCN(c3nccc(-c4noc([C@@]5(C)CCCc6sc(N)c(C#N)c65)n4)n3)[C@@H](C)C2)C(C)(C)C)cc1 [compound 2]

Further lines, the compound ahead of its results:

SMILES | Kd [1] | Dmax (KRAS^G12V) | Kd (KRAS) | Kd (KRAS^G12D GDP) | kon ([1]; read-out: SPR VCB kon [1/(M s)]) | IC50 (GP2d) | IC50 (NCI-H358)
Cc1ncsc1-c1ccc(CNC(=O)[C@@H]2C[C@@H](O)CN2C(=O)[C@@H](NC(=O)CCCCCN2CCCN(c3nccc(-c4noc([C@@]5(C)CCCc6sc(N)c(C#N)c65)n4)n3)[C@@H](C)C2)C(C)(C)C)cc1 [compound 3] |  | 88% | 9 ± 1 nM | 13 ± 2 nM | 136000 M⁻¹ s⁻¹ | 129 nM | 248 nM
Cc1ncsc1-c1ccc(CNC(=O)C2CC(O)CN2C(=O)C(c2cc(OCCCCN3CCCN(c4nccc(-c5noc(C6(C)CCCc7sc(N)c(C#N)c76)n5)n4)C(C)C3)no2)C(C)C)cc1 (centres unmarked) [compound 5] |  | < 15% |  |  |  | 245 nM | 138 nM
